Numbered stars: 1 amine (or outer) side, 2 acyl side, 3 side chain; on linkers, the order of the positions; unused ones are H or OH. Bridge positions count the residues as written; N and C are the ends. Square brackets hold non-standard residues; d marks the D form. Peptide text beside a SMILES is read from it. * marks the point of attachment. hPhe(3,5-F2-4-CF3) = N[C@@H](CCc1cc(F)c(C(F)(F)F)c(F)c1)C(=O)O; hPhe(3-Cl-4-CF3) = N[C@@H](CCc1ccc(C(F)(F)F)c(Cl)c1)C(=O)O; NMePhe(4-CF3) = CN[C@@H](Cc1ccc(C(F)(F)F)cc1)C(=O)O; hPhe(4-CF3) = N[C@@H](CCc1ccc(C(F)(F)F)cc1)C(=O)O; 3Oxa8azabicyclo(3.2.1)octane = C1CC2COCC1N2*; NMePhe(4-Cl) = CN[C@@H](Cc1ccc(Cl)cc1)C(=O)O; NMePhe(2-Cl) = CN[C@@H](Cc1ccccc1Cl)C(=O)O; hPhe(3-Cl) = N[C@@H](CCc1cccc(Cl)c1)C(=O)O; hPhe(4-Cl) = N[C@@H](CCc1ccc(Cl)cc1)C(=O)O; NMedβ3hAla = C[C@H](CC(=O)[*:2])N(C)[*:1]; NMeGly(cPent) = CN[C@H](C(=O)O)C1CCCC1; Pro(4,4-F2) = O=C(O)[C@@H]1CC(F)(F)CN1; NMeCha = CN[C@@H](CC1CCCCC1)C(=O)O; NMeAhp(2) = CCCCC[C@H](NC)C(=O)O; NMeChg = CN[C@H](C(=O)O)C1CCCCC1; NMeF = CN[C@@H](Cc1ccccc1)C(=O)O; NMeD = CN[C@@H](CC(=O)O)C(=O)O; NMeL = CN[C@@H](CC(C)C)C(=O)O; NMeV = CN[C@H](C(=O)O)C(C)C; d(β3hA) = C[C@@H](N)CC(=O)O; NMeS = CN[C@@H](CO)C(=O)O; Pip = O=C(O)[C@@H]1CCCCN1; NMeA = CN[C@@H](C)C(=O)O; Piperidide = C1CCN(*)CC1; Pyrrolidide = C1CCN(*)C1; dNMeA = CN[C@H](C)C(=O)O; Ac5c = NC1(C(=O)O)CCCC1; Aze = O=C(O)[C@@H]1CCN1; NBuGly = CCCCNCC(=O)O; Aib = CC(C)(N)C(=O)O; Sar = CNCC(=O)O; Propyl = CCC*
Target: protein-protein interaction between Kras and SOS1 (biotin-tagged human Kras loaded with GDP, His-tagged human SOS1) (Homo sapiens (Human), UniProt P01116, G12D)
Assay: Protein-protein interaction inhibition between Kras and SOS1 (KrasG12D-SOS PPI) using AlphaScreen;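 further: kras produced in E. coli, Ni-coupled donor beads and streptavidin acceptor beads, excitation 680 nm with emission detected at 520–620 nm via singlet oxygen transfer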
Assay type: biochemical
Conditions: AlphaScreen; biotin-tagged human Kras loaded with GDP, His-tagged human SOS1; read-out: KRAS G12D-SOS PPI IC50

| SMILES | IC50 |
| --- | --- |
| CC[C@H](C)[C@@H]1NC(=O)[C@H](C)N(C)C(=O)C[C@@H](C)NC(=O)[C@H](C(C)C)N(C)C(=O)C2(CCCC2)NC(=O)[C@@H]2CCCN2C(=O)[C@H](CCc2ccc(C(F)(F)F)c(Cl)c2)NC(=O)[C@@H](C)N(C)C(=O)[C@H](CC2CCCCC2)N(C)C(=O)[C@@H]2CCN2C(=O)CN(C)C1=O [Compound 601] (cyclo([Ac5c][NMeV][d(β3hA)][NMeA]I[Sar][Aze][NMeCha][dNMeA][hPhe(3-Cl-4-CF3)]P)) | 87 nM |
| CCCCN1CC(=O)N(C)[C@@H](Cc2ccc(Cl)cc2)C(=O)N(C)CC(=O)N[C@@H](CCc2ccc(C(F)(F)F)cc2)C(=O)N(C)[C@@H](CC(C)C)C(=O)NC(C)(C)C(=O)N(C)[C@@H](CC(C)C)C(=O)N[C@H](C)CC(=O)N(C)[C@@H](C)C(=O)N[C@@H]([C@@H](C)CC)C(=O)N(C)CC1=O [Compound 602] (cyclo([Aib][NMeL][d(β3hA)][NMeA]I[Sar][NBuGly][NMePhe(4-Cl)][Sar][hPhe(4-CF3)][NMeL])) | 280 nM |
| CC[C@H](C)[C@@H]1NC(=O)[C@H](CC(C)C)N(C)C(=O)C[C@@H](C)N(C)C(=O)[C@H](C2CCCCC2)N(C)C(=O)C2(CCCC2)NC(=O)[C@@H]2CC(F)(F)CN2C(=O)[C@H](CCc2cc(F)c(C(F)(F)F)c(F)c2)NC(=O)CN(C)C(=O)[C@H](Cc2ccc(C(F)(F)F)cc2)N(C)C(=O)[C@@H]2CCN2C(=O)[C@H](C)N(C)C1=O [Compound 606] (cyclo([Ac5c][NMeChg][NMedβ3hAla][NMeL]I[NMeA][Aze][NMePhe(4-CF3)][Sar][hPhe(3,5-F2-4-CF3)][Pro(4,4-F2)])) | 8.3 nM |
| CC[C@H](C)[C@@H]1NC(=O)[C@H](C)N(C)C(=O)C[C@@H](C(=O)N2CCCC2)N(C)C(=O)[C@H](C(C)C)N(C)C(=O)C2(CCCC2)NC(=O)[C@H](Cc2ccccc2Cl)N(C)C(=O)[C@H](CCc2ccc(Cl)cc2)NC(=O)CN(C)C(=O)[C@H](CC2CCCCC2)N(C)C(=O)CN(C)C(=O)CN(C)C1=O [Compound 607] ([NMeA]I[Sar][Sar][NMeCha][Sar][hPhe(4-Cl)][NMePhe(2-Cl)][Ac5c][NMeV][NMeD]-Pyrrolidide; lactam N-11) | 220 nM |
| CC[C@H](C)[C@@H]1NC(=O)[C@H](C(C)C)N(C)C(=O)C[C@@H](C(=O)N2CCCCC2)NC(=O)[C@H](CC(C)C)N(C)C(=O)C2(CCCC2)NC(=O)[C@H](CC(C)C)N(C)C(=O)[C@H](CCc2ccc(C(F)(F)F)cc2)NC(=O)CN(C)C(=O)[C@H](Cc2ccc(Cl)cc2)N(C)C(=O)CN(C)C(=O)CN(C)C1=O [Compound 610] ([NMeV]I[Sar][Sar][NMePhe(4-Cl)][Sar][hPhe(4-CF3)][NMeL][Ac5c][NMeL]D-Piperidide; lactam N-11) | 150 nM |
| CC[C@H](C)[C@@H]1NC(=O)[C@H](CC2CCCCC2)N(C)C(=O)C[C@@H](C)NC(=O)[C@H](CC(C)C)N(C)C(=O)C(C)(C)NC(=O)[C@H](CC(C)C)N(C)C(=O)[C@H](CCc2ccc(C(F)(F)F)cc2)NC(=O)CN(C)C(=O)[C@H](Cc2ccc(Cl)cc2)N(C)C(=O)CN(C)C(=O)CN(C)C1=O [Compound 615] (cyclo([Aib][NMeL][d(β3hA)][NMeCha]I[Sar][Sar][NMePhe(4-Cl)][Sar][hPhe(4-CF3)][NMeL])) | 220 nM |
| CCCCC[C@H]1C(=O)N[C@@H]([C@@H](C)CC)C(=O)N(C)[C@@H](C)C(=O)N2CC[C@H]2C(=O)N(C)[C@@H](COCCC)C(=O)N(C)CC(=O)N[C@@H](CCc2ccc(C(F)(F)F)c(Cl)c2)C(=O)N2CCC[C@H]2C(=O)NC2(CCCC2)C(=O)N(C)[C@@H](C2CCCC2)C(=O)N(C)[C@H](C(=O)N2C3CCC2COC3)CC(=O)N1C [Compound 622] ([NMeAhp(2)]I[NMeA][Aze][NMeS](Propyl)[Sar][hPhe(3-Cl-4-CF3)]P[Ac5c][NMeGly(cPent)][NMeD]-{3Oxa8azabicyclo(3.2.1)octane}; lactam N-11) | 1.7 nM |
| CC[C@H](C)[C@@H]1NC(=O)[C@H](C)N(C)C(=O)C[C@@H](C(=O)N2CCCCC2)N(C)C(=O)[C@H](C(C)C)N(C)C(=O)C2(CCCC2)NC(=O)[C@@H]2CCCN2C(=O)[C@H](CCc2cccc(Cl)c2)NC(=O)CN(C)C(=O)[C@H](CC2CCCCC2)N(C)C(=O)[C@@H]2CCN2C(=O)[C@H](C)N(C)C1=O [Compound 625] ([NMeA]I[NMeA][Aze][NMeCha][Sar][hPhe(3-Cl)]P[Ac5c][NMeV][NMeD]-Piperidide; lactam N-11) | 70 nM |
| CC[C@H](C)[C@@H]1NC(=O)[C@@H]2CCCCN2C(=O)C[C@@H](C)NC(=O)[C@H](CC(C)C)N(C)C(=O)[C@H](Cc2ccccc2)N(C)C(=O)[C@@H]2CCCN2C(=O)[C@H](CCc2ccc(C(F)(F)F)cc2)NC(=O)CN(C)C(=O)[C@H](Cc2ccc(Cl)cc2)N(C)C(=O)CN(C)C(=O)CN(C)C1=O [Compound 632] (cyclo(I[Sar][Sar][NMePhe(4-Cl)][Sar][hPhe(4-CF3)]P[NMeF][NMeL][d(β3hA)][Pip])) | 73 nM |

From patent publication US20240148821A1, “PHARMACEUTICAL USE OF CYCLIC PEPTIDE COMPOUND” (CHUGAI SEIYAKU KABUSHIKI KAISHA, priority 2021, published 2024)
